Where two headings read alike, the source gives them in different places.
Columns and labels:
[1] = tested on: Key Broadleaf Weed and Crop Species; test: Post-Emergent Test II (Table 5); format: in vivo; conditions: post-emergence, 336 h; for pest or weed control at 70 g/ha: application rate 70 (kg ai/ha; footnote: g ai/ha); for pest or weed control at 140 g/ha: application rate 140 (kg ai/ha; footnote: g ai/ha)
In short: (§1)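 Growth stage at treatment: first or second true leaf. Application: compound in acetone/DMSO diluted into an adjuvant-containing aqueous mix, sprayed at 187 L/ha at several rates. Assessment: visual 0-100% injury at 14 days against untreated plants.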

[2] = tested on: Key Grass and Sedge Weeds as well as Grass Crops; test: Post-Emergent Test II (Table 6); format: in vivo; conditions: post-emergence, 336 h, 14 days after application; for pest or weed control at 70 g/ha: 70 g ai/ha; for pest or weed control at 140 g/ha: 140 g ai/ha
In short: as §1

[3] = Abutilon theophrasti, ABUTH: velvetleaf (Abutilon theophrasti), read-out: Visual Growth Reduction (%) 14 Days After Application ABUTH
[4] = Amaranthus retroflexus, AMARE: redroot pigweed (Amaranthus retroflexus), read-out: Visual Growth Reduction (%) 14 Days After Application AMARE
[5] = Brassica napus, BRSSS: oilseed rape, canola (Brassica napus), read-out: Visual Growth Reduction (%) 14 Days After Application BRSSS
[6] = Chenopodium album, CHEAL: lambsquarters (Chenopodium album), read-out: Visual Growth Reduction (%) 14 Days After Application CHEAL
[7] = Euphorbia heterophylla, EPHHL: wild poinsettia (Euphorbia heterophylla), read-out: Visual Growth Reduction (%) 14 Days After Application EPHHL
[8] = Helianthus annuus, HELAN: sunflower (Helianthus annuus), read-out: Visual Growth Reduction (%) 14 Days After Application HELAN
[9] = Viola tricolor, VIOTR: wild pansy (Viola tricolor), read-out: Visual Growth Reduction (%) 14 Days After Application VIOTR
[10] = CYPSS, read-out: Visual Growth Reduction (%) 14 Days After Application CYPSS
[11] = DIGSA: crabgrass (Digitaria sanguinalis), read-out: Visual Growth Reduction (%) 14 Days After Application DIGSA
[12] = ECHSS, read-out: Visual Growth Reduction (%) 14 Days After Application ECHSS
[13] = ORYSS (crop), read-out: Visual Growth Reduction (%) 14 Days After Application ORYSS
[14] = SETFA: giant foxtail (Setaria faberi), read-out: Visual Growth Reduction (%) 14 Days After Application SETFA
[15] = SORVU: grain sorghum (Sorghum vulgare), read-out: Visual Growth Reduction (%) 14 Days After Application SORVU
[16] = TRZSS (crop), read-out: Visual Growth Reduction (%) 14 Days After Application TRZSS
[17] = ZEAMX: maize, corn (Zea mays), read-out: Visual Growth Reduction (%) 14 Days After Application ZEAMX

| Compound | pest or weed control at 70 g/ha [1, 3] [%] | pest or weed control at 140 g/ha [1, 3] [%] | pest or weed control at 70 g/ha [1, 4] [%] | pest or weed control at 140 g/ha [1, 4] [%] | pest or weed control at 70 g/ha [1, 5] [%] | pest or weed control at 140 g/ha [1, 5] [%] | pest or weed control at 70 g/ha [1, 6] [%] | pest or weed control at 140 g/ha [1, 6] [%] | pest or weed control at 70 g/ha [1, 7] [%] | pest or weed control at 140 g/ha [1, 7] [%] | pest or weed control at 70 g/ha [1, 8] [%] | pest or weed control at 140 g/ha [1, 8] [%] | pest or weed control at 70 g/ha [1, 9] [%] | pest or weed control at 140 g/ha [1, 9] [%] | pest or weed control at 70 g/ha [2, 10] [%] | pest or weed control at 140 g/ha [2, 10] [%] | pest or weed control at 70 g/ha [2, 11] [%] | pest or weed control at 140 g/ha [2, 11] [%] | pest or weed control at 70 g/ha [2, 12] [%] | pest or weed control at 140 g/ha [2, 12] [%] | other results |
| --- | --- | --- | --- | --- | --- | --- | --- | --- | --- | --- | --- | --- | --- | --- | --- | --- | --- | --- | --- | --- | --- |
| Cc1c(F)c(Cl)cc(F)c1-c1cc(N)c(Cl)c(C(=O)O)n1 [Compound 92, 4-amino-3-chloro-6-(4-chloro-3,6-difluoro-2-methylphenyl)picolinic acid] | 95 to 100 | 95 to 100 | 95 to 100 | 95 to 100 | 95 to 100 | 95 to 100 | 95 to 100 | 95 to 100 | 0 to 29 | 30 to 44 | 95 to 100 | 95 to 100 | 60 to 74 | 75 to 84 | 0 to 29 | 0 to 29 | 0 to 29 | 0 to 29 | 0 to 29 | 0 to 29 | pest or weed control at 70 g/ha [2, 13]: 0 to 29%; pest or weed control at 140 g/ha [2, 13]: 0 to 29%; pest or weed control at 70 g/ha [2, 14]: 0 to 29%; pest or weed control at 140 g/ha [2, 14]: 0 to 29%; pest or weed control at 70 g/ha [2, 15]: 0 to 29%; pest or weed control at 140 g/ha [2, 15]: 0 to 29%; pest or weed control at 70 g/ha [2, 16]: 30 to 44%; pest or weed control at 140 g/ha [2, 16]: 60 to 74%; pest or weed control at 70 g/ha [2, 17]: 0 to 29%; pest or weed control at 140 g/ha [2, 17]: 0 to 29%; melting point: 160 to 162 °C |
| COC(=O)c1nc(-c2ccc(Cl)nc2Cl)cc(N)c1Cl [Compound 15, methyl 4-amino-2′,5,6′-trichloro-[2,3′-bipyridine]-6-carboxylate] | 75 to 84 | 85 to 94 | 95 to 100 | 95 to 100 | 60 to 74 | 75 to 84 | 85 to 94 | 85 to 94 | 0 to 29 | 0 to 29 | 85 to 94 | 95 to 100 | 30 to 44 | 30 to 44 | 0 to 29 | 0 to 29 | 0 to 29 | 0 to 29 | 0 to 29 | 0 to 29 | pest or weed control at 70 g/ha [2, 13]: 0 to 29%; pest or weed control at 140 g/ha [2, 13]: 0 to 29%; pest or weed control at 70 g/ha [2, 14]: 0 to 29%; pest or weed control at 140 g/ha [2, 14]: 0 to 29%; pest or weed control at 70 g/ha [2, 15]: 0 to 29%; pest or weed control at 140 g/ha [2, 15]: 0 to 29%; pest or weed control at 70 g/ha [2, 16]: 0 to 29%; pest or weed control at 140 g/ha [2, 16]: 0 to 29%; pest or weed control at 70 g/ha [2, 17]: 0 to 29%; pest or weed control at 140 g/ha [2, 17]: 0 to 29%; melting point: 231 °C |
| Nc1cc(-c2ccc(Cl)nc2Cl)nc(C(=O)O)c1Cl [Compound 1, 4-amino-2′,5,6′-trichloro-[2,3′-bipyridine]-6-carboxylic acid] | 30 to 44 | 75 to 84 | 95 to 100 | 95 to 100 | 85 to 94 | 95 to 100 | 85 to 94 | 95 to 100 | 0 to 29 | 0 to 29 | 75 to 84 | 85 to 94 | 0 to 29 | 30 to 44 | 0 to 29 | 0 to 29 | 0 to 29 | 0 to 29 | 0 to 29 | 0 to 29 | pest or weed control at 70 g/ha [2, 13]: 0 to 29%; pest or weed control at 140 g/ha [2, 13]: 0 to 29%; pest or weed control at 70 g/ha [2, 14]: 0 to 29%; pest or weed control at 140 g/ha [2, 14]: 0 to 29%; pest or weed control at 70 g/ha [2, 15]: 0 to 29%; pest or weed control at 140 g/ha [2, 15]: 0 to 29%; pest or weed control at 70 g/ha [2, 16]: 0 to 29%; pest or weed control at 140 g/ha [2, 16]: 0 to 29%; pest or weed control at 70 g/ha [2, 17]: 0 to 29%; pest or weed control at 140 g/ha [2, 17]: 0 to 29%; melting point: 184 °C (dec.) |
